Columns and labels:
Assay in all cases: relative viability (nuclei count vs DMSO), 5 days (fraction); higher = more cells survive
[1] = test system: HOP-62
How it was run: (§1)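 Lung cancer cell lines, seeded in 1536-well plates, were treated the following day by pin tool with a single drug or with five library-drug doses (not always all listed) in √10 steps on top of a fixed anchor-drug dose. Cells were fixed and nuclei stained in one step after 5 days, and nuclei were counted. Relative viability is the nuclei count for treated wells divided by that for vehicle wells, reported as medians of duplicate plates.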

[2] = test system: SK-LU-1
How it was run: as §1

[3] = test system: NCI-H460
How it was run: as §1

[4] = test system: A-427
How it was run: as §1

[5] = test system: SW 1573
How it was run: as §1

[6] = test system: NCI-H647
How it was run: as §1

[7] = test system: LXF-289
How it was run: as §1

[8] = test system: NCI-H1915
How it was run: as §1

[9] = test system: LC-2-ad
How it was run: as §1

[10] = test system: NCI-H2126
How it was run: as §1

[11] = test system: NCI-H2347
How it was run: as §1

[12] = test system: NCI-H2342
How it was run: as §1

[13] = test system: LOU-NH91
How it was run: as §1

[14] = test system: NCI-H1755
How it was run: as §1

[15] = test system: NCI-H1975
How it was run: as §1

[16] = test system: NCI-H2228
How it was run: as §1

[17] = test system: RERF-LC-KJ
How it was run: as §1

[18] = test system: NCI-H358
How it was run: as §1

[19] = test system: HCC-15
How it was run: as §1

[20] = test system: PC-3 [JPC-3]
How it was run: as §1

[21] = test system: HCC-78
How it was run: as §1

[22] = test system: NCI-H1734
How it was run: as §1

NC(=O)Nc1cc(-c2cccc(F)c2)sc1C(=O)N[C@H]1CCCNC1 [AZD7762] + O=C(CCCCCCC(=O)Nc1ccccc1)NO [Vorinostat] (partner 1 µM)
relative viability ([1]; first compound 0.01 µM): 0.571
relative viability ([1]; first compound 0.03162 µM): 0.68
relative viability ([1]; first compound 0.1 µM): 0.701
relative viability ([1]; first compound 0.3162 µM): 0.607
relative viability ([1]; first compound 1 µM): 0.237
relative viability ([2]; first compound 0.01 µM): 0.909
relative viability ([2]; first compound 0.03162 µM): 0.663
relative viability ([2]; first compound 0.1 µM): 0.563
relative viability ([2]; first compound 0.3162 µM): 0.273
relative viability ([2]; first compound 1 µM): 0.276
relative viability ([3]; first compound 0.01 µM): 0.885
relative viability ([3]; first compound 0.03162 µM): 0.63
relative viability ([3]; first compound 0.1 µM): 0.684
relative viability ([3]; first compound 0.3162 µM): 0.216
relative viability ([3]; first compound 1 µM): 0.0532
relative viability ([4]; first compound 0.01 µM): 0.875
relative viability ([4]; first compound 0.03162 µM): 0.874
relative viability ([4]; first compound 0.1 µM): 0.857
relative viability ([4]; first compound 0.3162 µM): 0.728
relative viability ([4]; first compound 1 µM): 0.41
relative viability ([5]; first compound 0.01 µM): 1.16
relative viability ([5]; first compound 0.03162 µM): 0.994
relative viability ([5]; first compound 0.1 µM): 0.821
relative viability ([5]; first compound 0.3162 µM): 0.648
relative viability ([5]; first compound 1 µM): 0.102
relative viability ([6]; first compound 0.01 µM): 0.637
relative viability ([6]; first compound 0.03162 µM): 0.554
relative viability ([6]; first compound 0.1 µM): 0.521
relative viability ([6]; first compound 0.3162 µM): 0.281
relative viability ([6]; first compound 1 µM): 0.108
relative viability ([7]; first compound 0.01 µM): 0.67
relative viability ([7]; first compound 0.03162 µM): 0.802
relative viability ([7]; first compound 0.1 µM): 0.77
relative viability ([7]; first compound 0.3162 µM): 0.78
relative viability ([7]; first compound 1 µM): 0.83
relative viability ([8]; first compound 0.01 µM): 0.567
relative viability ([8]; first compound 0.03162 µM): 0.526
relative viability ([8]; first compound 0.1 µM): 0.462
relative viability ([8]; first compound 0.3162 µM): 0.474
relative viability ([8]; first compound 1 µM): 0.373
relative viability ([9]; first compound 0.01 µM): 0.724
relative viability ([9]; first compound 0.03162 µM): 0.755
relative viability ([9]; first compound 0.1 µM): 0.749
relative viability ([9]; first compound 0.3162 µM): 0.647
relative viability ([9]; first compound 1 µM): 0.448
relative viability ([10]; first compound 0.01 µM): 0.688
relative viability ([10]; first compound 0.03162 µM): 0.867
relative viability ([10]; first compound 0.1 µM): 0.735
relative viability ([10]; first compound 0.3162 µM): 0.773
relative viability ([10]; first compound 1 µM): 0.775
relative viability ([11]; first compound 0.01 µM): 0.554
relative viability ([11]; first compound 0.03162 µM): 0.711
relative viability ([11]; first compound 0.1 µM): 0.557
relative viability ([11]; first compound 0.3162 µM): 0.637
relative viability ([11]; first compound 1 µM): 0.547
relative viability ([12]; first compound 0.01 µM): 0.715
relative viability ([12]; first compound 0.03162 µM): 0.85
relative viability ([12]; first compound 0.1 µM): 0.722
relative viability ([12]; first compound 0.3162 µM): 0.74
relative viability ([12]; first compound 1 µM): 0.633
relative viability ([13]; first compound 0.01 µM): 0.87
relative viability ([13]; first compound 0.03162 µM): 0.971
relative viability ([13]; first compound 0.1 µM): 0.917
relative viability ([13]; first compound 0.3162 µM): 0.741
relative viability ([13]; first compound 1 µM): 0.646
relative viability ([14]; first compound 0.01 µM): 0.804
relative viability ([14]; first compound 0.03162 µM): 0.723
relative viability ([14]; first compound 0.1 µM): 0.72
relative viability ([14]; first compound 0.3162 µM): 0.663
relative viability ([14]; first compound 1 µM): 0.423
relative viability ([15]; first compound 0.01 µM): 0.725
relative viability ([15]; first compound 0.03162 µM): 0.641
relative viability ([15]; first compound 0.1 µM): 0.655
relative viability ([15]; first compound 0.3162 µM): 0.626
relative viability ([15]; first compound 1 µM): 0.401
relative viability ([16]; first compound 0.01 µM): 1.06
relative viability ([16]; first compound 0.03162 µM): 0.443
relative viability ([16]; first compound 0.1 µM): 0.59
relative viability ([16]; first compound 0.3162 µM): 0.383
relative viability ([16]; first compound 1 µM): 0.299
relative viability ([17]; first compound 0.01 µM): 0.749
relative viability ([17]; first compound 0.03162 µM): 0.695
relative viability ([17]; first compound 0.1 µM): 0.711
relative viability ([17]; first compound 0.3162 µM): 0.722
relative viability ([17]; first compound 1 µM): 0.601
relative viability ([18]; first compound 0.01 µM): 0.687
relative viability ([18]; first compound 0.03162 µM): 0.667
relative viability ([18]; first compound 0.1 µM): 0.658
relative viability ([18]; first compound 0.3162 µM): 0.346
relative viability ([18]; first compound 1 µM): 0.0934
relative viability ([19]; first compound 0.01 µM): 0.844
relative viability ([19]; first compound 0.03162 µM): 0.691
relative viability ([19]; first compound 0.1 µM): 0.908
relative viability ([19]; first compound 0.3162 µM): 0.734
relative viability ([19]; first compound 1 µM): 0.723
relative viability ([20]; first compound 0.01 µM): 0.644
relative viability ([20]; first compound 0.03162 µM): 0.888
relative viability ([20]; first compound 0.1 µM): 0.759
relative viability ([20]; first compound 0.3162 µM): 0.607
relative viability ([20]; first compound 1 µM): 0.501
relative viability ([21]; first compound 0.01 µM): 0.496
relative viability ([21]; first compound 0.03162 µM): 0.469
relative viability ([21]; first compound 0.1 µM): 0.498
relative viability ([21]; first compound 0.3162 µM): 0.425
relative viability ([21]; first compound 1 µM): 0.349
relative viability ([22]; first compound 0.01 µM): 0.772
relative viability ([22]; first compound 0.03162 µM): 0.723
relative viability ([22]; first compound 0.1 µM): 0.738
relative viability ([22]; first compound 0.3162 µM): 0.415
relative viability ([22]; first compound 1 µM): 0.251
